Experimental data: patent US6685935B1 (priority 1995, dated 2004)
Where two headings read alike, the source gives them in different places.

How the values were obtained:
C57B6 mice = settings: mouse, in vivo, ip
[1] = test system: Cloudman S91 melanoma/macrophage hybrid #48 tumors in DBA/2J mice
B16F10 melanoma cells = assay type: cell-based, mouse
Description: FIG. 11-F is a graph showing the growth of B16F10 melanoma cells in monolayer culture in the presence or absence of ganciclovir at 10 μg/ml or 25 μg/ml.

[2] = test system: B16F10 melanoma in C57B6 mice; assay type: in vivo, mouse
Description: C57B6 mice were inoculated s.c., left shoulder region, with […] B16F10 melanoma cells from culture. […] At 18 days post-tumor implantation (10 days post bacterial inoculation) all animals were given enrofloxacin antibiotic, 0.2 mg/ml, in their drinking water (BAYTRIL™) and maintained with this antibiotic supplement for 2 weeks. Tumor growth was assessed by caliper measurements and computed as volume in mm^3. Animals were euthanized and listed as dead when the sum of their tumor measurements, length+width+height, reached 60 mm, or when they became moribund (listless, cessation of drinking).
C57B6 female mice, 5-7 weeks old, were inoculated s.c. in the left shoulder region with 5×10^5 B16F10 melanoma cells grown in culture. […] Tumor growth was assessed with periodic caliper measurements of tumor length, width and height, and computed as tumor volume in mm^3. Results of tumor growth, shown in FIGS. 16A-D represent the averages±SD for 5 animals/group with 5/5 animals surviving. After the point at which one or more animals died within a group, the average tumor sizes of the surviving animals were no longer shown when the data were plotted as shown in FIGS. 16A-D.
The animals were allowed to eat and drink ad libitum. Twenty-three days (Experiment #1) or 10 days (Experiment #2) following inoculation of bacteria, both control and bacteria treated mice were given Baytril™ (enrofloxacin, 0.2 mg/ml drinking water) and maintained on this antibiotic for a total of 2 weeks. In Experiment #1 the times at which the mice became moribund (listless, cessation of drinking) or died, were noted. The results are presented in Table 20(F) as the average survival±SD for the conditions tested. In Experiment #2 animals were sacrificed when the tumor reached 4 g and listed with the other dead as described in Experiment #1. The two different methods for assessing survival accounted for a somewhat shorter survival time for control animals in Experiment #2 (26 days) as compared to Experiment #1 (28 days).

Row | SMILES | Avg. time of Death ± S.D. (C57B6 mice) | side-effects of ganciclovir treatment ([1]; 2.5 mg i.p. four times over 3 days, no bacteria) | Mean Tumor Doubling Time ([1]; 3×10^5 c.f.u. bacteria i.p., ganciclovir 2.0 mg, 6 inoculations over 5 days) | proliferation of B16F10 melanoma cells in culture (B16F10 melanoma cells; GCV 10 μg/ml) | proliferation of B16F10 melanoma cells in culture (B16F10 melanoma cells; GCV 25 μg/ml) | Time Days ± S.D. ([2]; GCV 3.75 mg, no bacteria) | Treated/Control T/C ([2]; GCV 3.75 mg, no bacteria) | effect on tumor volume ([2]; GCV 3.75 mg-10 mg/mouse days 11-12, no bacteria)
1 | CCN1CCN(c2cc3c(cc2F)c(=O)c(C(=O)O)cn3C2CC2)CC1 [enrofloxacin, 1-cyclopropyl-7-(4-ethyl-1-piperazinyl)-6-fluoro-1,4-dihydro-4-oxo-3-quinolinecarboxylic acid] | >21 days | – | – | – | – | – | – | –
2 | Nc1nc(O)c2ncn(COC(CO)CO)c2n1 [ganciclovir, ganciclovir sodium] | – | little or no side-effects | 94 h | not | significantly suppressed | 27 ± 1 days | 1.1 | small reduction in tumor volume
